According to ChEMBL document CHEMBL4665642, “Anticancer profile of newly synthesized BRAF inhibitors possess 5-(pyrimidin-4-yl)imidazo[2,1-b]thiazole scaffold” (Bioorg Med Chem, 2019):

Tests used:
SK-MEL-28 [1] = experiment: Cytotoxicity against human SK-MEL-28 cells assessed as reduction in cell viability by MTT assay; type: functional, cell-based
HCT-29 = experiment: Cytotoxicity against human […] cells assessed as cell viability at 10 uM incubated for 48 hrs by sulforhodamine B assay relative to control; type: functional; conditions: read-out: Activity
786-0 = experiment: Cytotoxicity against human 786-0 cells assessed as cell viability at 10 uM incubated for 48 hrs by sulforhodamine B assay relative to control; type: functional; conditions: read-out: Activity
UACC-62 = experiment: Cytotoxicity against human UACC-62 cells assessed as cell viability at 10 uM incubated for 48 hrs by sulforhodamine B assay relative to control; type: functional; conditions: read-out: Activity
KM12 = experiment: Cytotoxicity against human KM12 cells assessed as cell viability at 10 uM incubated for 48 hrs by sulforhodamine B assay relative to control; type: functional; conditions: read-out: Activity
OVCAR-3 = experiment: Cytotoxicity against human OVCAR-3 cells assessed as cell viability at 10 uM incubated for 48 hrs by sulforhodamine B assay relative to control; type: functional; conditions: read-out: Activity
A-375 = experiment: Cytotoxicity against human A-375 cells assessed as reduction in cell viability by MTT assay; type: functional, cell-based
CCRF-CEM = experiment: Cytotoxicity against human CCRF-CEM cells assessed as cell viability at 10 uM incubated for 48 hrs by sulforhodamine B assay relative to control; type: functional; conditions: read-out: Activity
K562 = experiment: Cytotoxicity against human K562 cells assessed as cell viability at 10 uM incubated for 48 hrs by sulforhodamine B assay relative to control; type: functional; conditions: read-out: Activity
ACHN = experiment: Cytotoxicity against human ACHN cells assessed as cell viability at 10 uM incubated for 48 hrs by sulforhodamine B assay relative to control; type: functional; conditions: read-out: Activity
SK-OV-3 = experiment: Cytotoxicity against human SK-OV-3 cells assessed as cell viability at 10 uM incubated for 48 hrs by sulforhodamine B assay relative to control; type: functional; conditions: read-out: Activity
NCI-H460 = experiment: Cytotoxicity against human NCI-H460 cells assessed as cell viability at 10 uM incubated for 48 hrs by sulforhodamine B assay relative to control; type: functional; conditions: read-out: Activity
HL-60(TB) = experiment: Cytotoxicity against human HL-60(TB) cells assessed as cell viability at 10 uM incubated for 48 hrs by sulforhodamine B assay relative to control; type: functional; conditions: read-out: Activity
COLO 205 = experiment: Cytotoxicity against human COLO 205 cells assessed as cell viability at 10 uM incubated for 48 hrs by sulforhodamine B assay relative to control; type: functional; conditions: read-out: Activity
OVCAR-4 = experiment: Cytotoxicity against human OVCAR-4 cells assessed as cell viability at 10 uM incubated for 48 hrs by sulforhodamine B assay relative to control; type: functional; conditions: read-out: Activity
MDA-MB-468 = experiment: Cytotoxicity against human MDA-MB-468 cells assessed as cell viability at 10 uM incubated for 48 hrs by sulforhodamine B assay relative to control; type: functional; conditions: read-out: Activity
MOLT-4 = experiment: Cytotoxicity against human MOLT-4 cells assessed as cell viability at 10 uM incubated for 48 hrs by sulforhodamine B assay relative to control; type: functional; conditions: read-out: Activity
T47D = experiment: Cytotoxicity against human T47D cells assessed as cell viability at 10 uM incubated for 48 hrs by sulforhodamine B assay relative to control; type: functional; conditions: read-out: Activity
SK-MEL-28 [2] = experiment: Cytotoxicity against human SK-MEL-28 cells assessed as cell viability at 10 uM incubated for 48 hrs by sulforhodamine B assay relative to control; type: functional; conditions: read-out: Activity
SN12C = experiment: Cytotoxicity against human SN12C cells assessed as cell viability at 10 uM incubated for 48 hrs by sulforhodamine B assay relative to control; type: functional; conditions: read-out: Activity

| Structure (SMILES) | IC50 (SK-MEL-28 [1]) [µM] | viability at 10 µM (HCT-29) [%] | viability at 10 µM (786-0) [%] | viability at 10 µM (UACC-62) [%] | viability at 10 µM (KM12) [%] | viability at 10 µM (OVCAR-3) [%] | IC50 (A-375) [µM] | viability at 10 µM (CCRF-CEM) [%] | viability at 10 µM (K562) [%] | viability at 10 µM (ACHN) [%] | viability at 10 µM (SK-OV-3) [%] | viability at 10 µM (NCI-H460) [%] | viability at 10 µM (HL-60(TB)) [%] | viability at 10 µM (COLO 205) [%] | viability at 10 µM (OVCAR-4) [%] | viability at 10 µM (MDA-MB-468) [%] | viability at 10 µM (MOLT-4) [%] | viability at 10 µM (T47D) [%] | viability at 10 µM (SK-MEL-28 [2]) [%] | viability at 10 µM (SN12C) [%] |
| --- | --- | --- | --- | --- | --- | --- | --- | --- | --- | --- | --- | --- | --- | --- | --- | --- | --- | --- | --- | --- |
| O=S(=O)(NCCNc1nccc(-c2c(-c3cccc(F)c3)nc3sccn23)n1)c1ccc(Cl)cc1 | 18.6 | 36 | 51.3 | 44.3 | 47.7 | 65.4 | 18.6 | 50.5 | 41.3 | 35.7 | 94.9 | 30.1 | 96 | 40 | 63.6 | 64.5 | 46.8 | 43.2 | 74.7 | 48.7 |
| O=C(NCCNc1nccc(-c2c(-c3cccc(F)c3)nc3sccn23)n1)C1CCCCC1 |  | 43.6 | 69.1 | 58.4 | 81.6 | 76.3 |  | 70 | 74.2 | 67.1 | 50.1 | 91.6 | 122 | 53.5 | 71.8 | 59.5 | 55.4 | 30.2 | 106 | 67.5 |
| O=S(=O)(NCCCNc1nccc(-c2c(-c3cccc(F)c3)nc3sccn23)n1)c1ccc(O)cc1 |  | 41.8 | 65.5 | 60.1 | 27.4 | 80.5 |  | 67.6 | 55.1 | 43.7 | 86.4 | 52.9 | 107 | 48.4 | 82.4 | 60.4 | 55.5 | 48.8 | 95.9 | 58.7 |
| O=S(=O)(NCCNc1nccc(-c2c(-c3cccc(F)c3)nc3sccn23)n1)c1ccccc1 | 19 | 23.2 | 47.4 | 24.9 | 28.8 | 58.9 | 11 | 33.6 | 23.9 | 26 | 57.1 | 25.9 | 63.1 | 24.1 | 40 | 43.6 | 16.6 | 18.8 | 54.3 | 40.3 |
| O=S(=O)(NCCNc1nccc(-c2c(-c3cccc(F)c3)nc3sccn23)n1)c1cccc(F)c1 | 18.3 | 43.9 | 63.9 | 56.2 | 44.2 | 76.7 | 14.9 | 63.3 | 48.6 | 39.9 | 95.8 | 43 | 101 | 45.1 | 64.8 | 68.6 | 57.8 | 49.1 | 94.7 | 55.3 |
| O=C(NCCNc1nccc(-c2c(-c3cccc(F)c3)nc3sccn23)n1)c1ccc(C(F)(F)F)cc1 | 9.26 | 50.2 | 65.7 | 26.4 | 75.1 | 76.5 | 8.71 | 53.5 | 61.8 | 42.6 | 70.2 | 73.2 | 103 | 32.7 | 81.8 | 77.6 | 50 | 43 | 82.1 | 66.6 |
